Where two headings read alike, the source gives them in different places.
Key:
[1] = target: T1, BuChE (EC 3.1.1.8) from horse serum (Equus caballus, UniProt P81908); test: biochemical; details: eqBuChE, mean ± SEM of triplicate independent experiments
T1 construct: BuChE (EC 3.1.1.8, from equine serum, C0663); purchased Sigma-Aldrich C0663; host or cells: equine serum (natural source)
Method: (§1) AChE (EC 3.1.1.7, Type VI-S, from electric eel, C3389) and BuChE (EC 3.1.1.8, from equine serum, C0663), 5,5’-dithiobis (2-nitrobenzoic acid) (DTNB, D218200), acetylthiocholine iodide (ATC, A5751) and butyrylthiocholine iodide (BTC, B3253) used as substrates were obtained from Sigma-Aldrich (St. Louis, MO).
(§2) The inhibitory capacity of the synthesised compounds on AChE and BuChE biological activity in this paper were evaluated according to our previously reported method. Briefly, AChE/BuChE stock solution was diluted with 0.2 M phosphate buffer pH 8.0 to give 2.5 units/mL (for electrophorus electricus (eeAChE) and equine serum (eqBuChE)). ATC/BTC iodide solution (0.075 M) was dissolved in deionized water. […] The assay solution was prepared as follows: potassium dihydrogen phosphate (1.36 g, 10 mmol) was dissolved in 100 ml of water. The pH of the solution was then adjusted to 8.0 ± 0.1 with KOH. Stock solutions of the test samples were dissolved in ethanol to give a final concentration of 10 − 4^ M when diluted to the final volume of 3.32 ml. For each compound, a dilution series of five different concentrations 10 − 5–10 − 9^9 M were prepared.
(§3) For measurement, a cuvette containing 3 mL of phosphate buffer, 100 μL of eeAChE or eqBuChE, 100 μL of DTNB, and 100 μL of the test compound solution was added in sequence. The reaction was initiated by adding 20 μL of ATC or BTC and the solution was mixed immediately. […] For the reference value, 100 μL of water was replaced for the test compound solution. For the blank control, additional 100 μL of water was also replaced for the enzyme solution. The measurement of each concentration was assayed in triplicate. GraphPad Prism 5 (GraphPad Software, Inc., La Jolla, CA) was used for data processing. The inhibition curve was fitted by plotting percentage enzyme activity (100% for the reference) versus the logarithm of test compound concentration. The half maximal inhibitory concentration (IC50) values were calculated according to the curve and the data were shown in mean ± SEM.
(§4) Inhibitory activities were presented as IC50 (nM).

[2] = target: T2, AChE (EC 3.1.1.7) from electric eel (Electrophorus electricus, UniProt O42275); test: biochemical; details: for SI (selectivity index, AChE IC50/BuChE IC50): eeAChE IC50 / eqBuChE IC50; for IC50: eeAChE, mean ± SEM of triplicate independent experiments
T2 construct: AChE (EC 3.1.1.7, Type VI-S, from electric eel, C3389); purchased Sigma-Aldrich C3389; host or cells: electric eel (natural source)
Method: as §1, §2, §3, §4

adult male ICR mice = format: in vivo; details: mouse, in vivo
Method: . Heparinised serum was obtained from the retrobulbar plexus 8, 22, and 36 h after the administration and were subjected to hepatotoxicity evaluation. The activity of aspartate aminotransferase (AST) and alanine aminotransferase (ALT), two indicators of liver damage, was determined by a commercial assay kit (EF551 and EF550 for ALT, EH027 and EF548 for AST, Wako, Japan). The data were analysed by Biochemical Analyzer (HITACHI 7020, Japan).
Mice were sacrificed 1 h after the collection of retrobulbar blood and livers were removed for morphological studies by using the immunohistochemical method. Two 3 mm sections of each liver extending from the hilus to the margin of the left lateral lobe were isolated using ultra-thin semiautomatic microtome (Leica RM2245, Germany) and placed in 10% buffered formaldehyde immediately, fixed for two days, and embedded together in one paraffin block by using paraffin embedding station (Leica EG1150H, Germany). Subsequently, 5 μm sections were prepared from these paraffin blocks. They were deparaffinated and stained with hematoxylin and eosin (H&E) for histopathological examinations.

HepG2 cells = details: for Cell viability (% of vehicle): 24 h, MTT, mean ± SEM n = 3; for Antiproliferative activity on HepG2 cells (in words): MTT assay
Method: To determine the possible drug-induced hepatotoxicity, 10d and 10g were selected for preliminary hepatotoxicity evaluation. Heparinised serum was obtained after the treatment of the compounds at 8, 22, and 36 h, respectively. […] Additionally, immunohistochemical staining was performed on the liver tissues for the histopathological study.
Methods for Cell Viability Assay. The human hepatocellular HepG2 cells were […]
Cells were seeded into 96-well plates at a density of 3
37 °C for the following experiments. For cytotoxicity test, cells were treated with 0.05- […]
Cell viability was measured by 3-(4,5- dimethylthiazol-2-yl)-2,5-diphenyltetrazolium bromide (MTT) analysis. In brief, 15 µL of MTT was added into each well and incubated at 37 °C for 4 h. The […]
viability was calculated and presented by the percentage of vehicle-treated group.

Aβ1–42 = target: T3, Aβ1–42 (Homo sapiens, UniProt P05067); test: Inhibition of self-induced Aβ1–42 aggregation (Thioflavin T assay); format: biochemical; details: ThT fluorescence, 24 h incubation, read-out: Inhibitory rate of compounds (25 μM) on self-induced Aβ1-42 aggregation
T3 construct: aliquots of 2 μL of Aβ1–42 (AS-64129–05 Anaspec Inc.); purchased Anaspec Inc. AS-64129–05
Method: Inhibitory effects of the compounds on self-induced Aβ1–42 aggregation were tested through a Thioflavin T (ThT)-(T3516, Sigma-Aldrich) binding assay.
The calculation of the inhibitory rate of Aβ1–42 self-induced aggregation was performed as the following equation: (1 − IFi/IFc) × 100%. IFi and IFc were the fluorescence intensities measured in the presence and absence of inhibitors, respectively, after subtracting the background fluorescence of the 5 mM ThT solution. Each compound was measured in triplicate.
A thioflavin T-based fluorometric assay was performed.

[3] = tested on: scopolamine-induced cognition-impaired adult ICR mice; test: Morris water maze in scopolamine-induced cognition-impaired mice; format: in vivo; details: 30 mg/kg oral, scopolamine 1 mg/kg i.p., mean ± SEM n = 6; for Latency to target: probe trial
Method: Behavioral studies were performed using the Morris water maze[25] according to our method reported previously. Adult male imprinting control region (ICR) mice (8–10 weeks old, weight 20–25 g) were obtained from the Yangzhou University Medical Center (Yangzhou, China). All animal handling and experimental protocols were approved by the Institutional Animal Care and Use Committee of the China Pharmaceutical University. Scopolamine hydrobromide was purchased from Aladdin Reagents (S107418, Shanghai, China).
A circular pool (120 cm in diameter, 60 cm height) which was fixed with an escape platform (10 cm diameter) and filled to a depth of 40 cm fresh water (kept at 25 °C) composed the water maze and this water maze placed in a lit room was used to evaluate the cognition function and memory capacity of mice according to our previously described method[24] . After five days of learning and memory training, a probe trial was performed on day 6. For the evaluation of cognitive function, each mouse was individually trained on a visible-platform (labeled by a small flag, 5 cm tall) for two days and was followed by a hidden-platform version (placed 1 cm below the surface of the water) of the water maze from day 3 to day 5. All mice were subjected to two training trials daily, each of which lasted for 90 s. The time for each mouse to find the platform (a successful escape) was recorded. […] On the last day (day 6), a probe trial was given to the mice in which the platform was removed from the pool and each mouse was allowed 90 s to search for the platform. The time the animals spent to reach the missing platform location and the number of times they crossed that location were recorded.
Data for the time of escape latency, the swimming trajectory, and the number of visual platform crossings were recorded by Panlab SMART 3.0 (Panlab, S.L.U, Spain) and GraphPad Prism 5 was used to evaluate the level of memory retention.

T1 sequence (P81908 whole entry): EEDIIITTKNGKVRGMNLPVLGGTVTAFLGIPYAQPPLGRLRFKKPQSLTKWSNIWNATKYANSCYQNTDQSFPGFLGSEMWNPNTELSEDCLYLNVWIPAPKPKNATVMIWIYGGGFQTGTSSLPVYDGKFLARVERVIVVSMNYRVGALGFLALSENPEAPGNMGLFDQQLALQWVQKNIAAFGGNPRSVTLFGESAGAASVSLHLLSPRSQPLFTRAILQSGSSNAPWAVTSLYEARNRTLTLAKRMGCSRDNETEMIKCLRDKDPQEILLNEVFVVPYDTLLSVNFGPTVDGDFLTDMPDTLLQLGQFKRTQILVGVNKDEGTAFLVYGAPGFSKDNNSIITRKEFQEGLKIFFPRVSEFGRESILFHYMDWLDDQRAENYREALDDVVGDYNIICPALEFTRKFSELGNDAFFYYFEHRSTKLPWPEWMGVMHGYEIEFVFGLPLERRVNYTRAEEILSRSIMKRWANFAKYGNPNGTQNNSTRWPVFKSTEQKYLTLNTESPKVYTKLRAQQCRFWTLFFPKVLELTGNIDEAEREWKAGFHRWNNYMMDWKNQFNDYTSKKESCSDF
T3 sequence (P05067 672-713): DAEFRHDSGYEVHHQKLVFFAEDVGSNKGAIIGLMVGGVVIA
T2 sequence (O42275 24-633): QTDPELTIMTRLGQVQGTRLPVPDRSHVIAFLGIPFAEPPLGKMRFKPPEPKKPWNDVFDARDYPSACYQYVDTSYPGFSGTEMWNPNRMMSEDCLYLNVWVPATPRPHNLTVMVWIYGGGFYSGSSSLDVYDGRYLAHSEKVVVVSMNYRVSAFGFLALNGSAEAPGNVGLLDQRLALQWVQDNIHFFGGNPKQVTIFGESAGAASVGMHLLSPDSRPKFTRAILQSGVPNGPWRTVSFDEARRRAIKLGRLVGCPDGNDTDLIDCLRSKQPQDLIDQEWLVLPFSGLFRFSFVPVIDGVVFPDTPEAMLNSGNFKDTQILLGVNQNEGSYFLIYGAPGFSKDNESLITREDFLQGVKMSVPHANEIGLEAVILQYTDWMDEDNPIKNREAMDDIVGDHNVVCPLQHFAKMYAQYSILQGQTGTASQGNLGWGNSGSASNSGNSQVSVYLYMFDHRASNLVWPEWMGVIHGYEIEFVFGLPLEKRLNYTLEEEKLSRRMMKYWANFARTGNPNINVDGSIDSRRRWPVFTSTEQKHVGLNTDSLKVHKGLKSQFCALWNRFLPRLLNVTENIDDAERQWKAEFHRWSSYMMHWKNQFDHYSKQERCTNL

Row | Compound | IC50 [1] | SI (selectivity index, AChE IC50/BuChE IC50) [2] | IC50 [2] | Morphologic changes in liver (histopathology, HE staining) (adult male ICR mice) | Cell viability (% of vehicle) (HepG2 cells; HepG2, 0.05 µM) | Cell viability (% of vehicle) (HepG2 cells; HepG2, 0.1 µM) | Cell viability (% of vehicle) (HepG2 cells; HepG2, 0.5 µM) | Cell viability (% of vehicle) (HepG2 cells; HepG2, 2.5 µM) | Cell viability (% of vehicle) (HepG2 cells; HepG2, 5 µM) | Cell viability (% of vehicle) (HepG2 cells; HepG2, 50 µM) | Antiproliferative activity on HepG2 cells (in words) (HepG2 cells) | inhibition at 25 µM (Aβ1–42) | Distance to target [3] | Speed in virtual platform [3] | Latency to target [3]
1 | COc1cc(/C=C/C(=O)NCCNc2c3c(nc4ccccc24)CCCC3)ccc1OCc1ccc(C)c(C)c1 [Compound 10g, (E)-3–(4-((3,4-dimethylbenzyl)oxy)-3-methoxyphenyl)-N-(2-((1,2,3,4-tetrahydroacridin-9-yl)amino)ethyl)acrylamide] | 101 ± 15.5 nM | 0.4 | 37 nM | did not cause adverse morphologic changes in liver | 128.4 ± 5.6 % of vehicle | 124.6 ± 1.7 % of vehicle | 121.7 ± 3.5 % of vehicle | 128.9 ± 4.1 % of vehicle | 1.5 ± 0.1 % of vehicle | 1.9 ± 0.3 % of vehicle | relatively strong toxic effects | 65.5% | 612.85 ± 81.54 cm | 17.27 ± 3.39 cm/s | 24.73 ± 3.54 s
2 | COc1cc(/C=C/C(=O)NCCNc2c3c(nc4ccccc24)CCCC3)ccc1OCc1ccc(C#N)cc1 [Compound 10j, (E)-3–(4-((4-cyanobenzyl)oxy)-3-methoxyphenyl)-N-(2-((1,2,3,4-tetrahydroacridin-9-yl)amino)ethyl)acrylamide] | 79.8 ± 8.9 nM | 1.3 | 107 ± 29.9 nM |  |  |  |  |  |  |  |  | 49.5% |  |  | 
3 | COc1cc(/C=C/C(=O)NCCNc2c3c(nc4ccccc24)CCCC3)ccc1OCc1ccc(Br)cc1 [Compound 10d, (E)-3–(4-((4-bromobenzyl)oxy)-3-methoxyphenyl)-N-(2-((1,2,3,4-tetrahydroacridin-9-yl)amino)ethyl)acrylamide] | 69.4 ± 13.4 nM | 0.7 | 49.5 ± 3.8 nM | did not cause adverse morphologic changes in liver | 129.7 ± 7.5 % of vehicle | 125.0 ± 2.3 % of vehicle | 125.6 ± 2.1 % of vehicle | 130.6 ± 2.2 % of vehicle | 13.2 ± 2.3 % of vehicle | 2.5 ± 0.3 % of vehicle | relatively strong toxic effects | 66.8% | 628.95 ± 87.55 cm | 18.82 ± 5.36 cm/s | 19.08 ± 2.56 s

— PMC6010002, “Synthesis, pharmacology and molecular docking on multifunctional tacrine-ferulic acid hybrids as cholinesterase inhibitors against Alzheimer’s disease” (Journal of Enzyme Inhibition and Medicinal Chemistry, 2018)
